In one experiment the test system is NPC1 fibroblasts. As to the kind of experiment: Lysosomal Ca2+ released by GPN in NPC1 fibroblasts. As to conditions: 40 μM, 24 hours. In kind it is cell-based, human. The text has this:
(§1) FIG. 4. (calcium assay) Delta-T increases intracellular Ca^2+ concentration and ameliorates lysosomal calcium deficiency in NPC1 cells—Increase in the concentration of intracellular Ca^2+, an important second messenger, triggers a variety of cellular responses including lysosomal exocytosis. In NPC1 fibroblasts there is a dysregulation of calcium homeostasis, as evidenced by lysosomal Ca^2+ deficiency. […] Consistent with an earlier report, lysosomal Ca^2+ was reduced in NPC1 cells compared with that in control cells.

The test system of another experiment is NPC1 skin fibroblasts. As to the kind of experiment: Cholesterol accumulation (Amplex-red, filipin) and enlarged lysosomes (Lysotracker) in NPC1 skin fibroblasts. The class given is cell-based, human. As to conditions: NPC1 skin fibroblasts; concentration dependent. The procedure:
(§2) Amplex-Red Cholesterol Assay—Total cholesterol in patient cells was measured by the Amplex-Red Cholesterol Assay Kit (Invitrogen). The unesterified cholesterol was determined using the same kit without the enzyme […]. Esterified cholesterol was determined as the difference between the total and unesterified cholesterol values. The cells were seeded to black, tissue culture-treated 96-well, 384-well or 1536-well plates at 4000, 1000, 300 cells/well in 100, 20 or 5 μl medium by a Multidrop Combi dispenser (Thermo Scientific, Waltham, Mass.) and cultured for 24 hr. The assay plates were added with compound dilution in DMSO solution using a Pintool station (Klaypsys, San Diego, Calif.) and cultured for 3 days. The cells were washed twice manually for 96-well or 384-well plates or using a centrifugation method in which the inverted plates were placed on a stack of paper towel and centrifuged at 800 rpm for 1 min followed by addition of 7 μl/well PBS (added gently with a 45 degree angled liquid dispenser (Klaypsys). The cholesterol assay mixture from the kit was added at 100, 20 or 2.5 μl/well for 96-well, 384-well or 1536-well plates and incubated for 1 hr at 37° C. The resulted fluorescence intensity was measured with excitation of 560 (±10) and emission of 590 (±10) in a fluorescence plate reader (Tecan, Durham, N.C.).

Experiment [1] relates to Wolman fibroblasts. As to the kind of experiment: Nile Red staining of neutral lipids in Wolman fibroblasts. As to conditions: cultured with compound for 3 days.
Protocol: Nile-red Staining—The cells were cultured and treated as described above in 96-well plates. On the experimental day, cells were washed two times with PBS and live-stained with 1 μM Nile-red dye solution (prepared in cell culture medium) at 100 μl/well followed by an incubation at 37° C. for 10 min. After washed twice with PBS, the cells were fixed in 3.2% paraformaldehyde in PBS at 100 μl/well 1 μg/ml Hoechst 33342 (Invitrogen) in PBS and incubation at RT for 30 min. The plate was washed twice with PBS and the images were measured in Incell2000 imaging plate reader with a FTTC filter set (Ex=480±20 nm and Ex=525±36 nm) for the neutral lipids (cholesteryl esters and triglycerides) and a DAPI filter set for Hoechst nuclear staining.
(Nile Red) Cells were cultured in the presence of delta tocopherol, alpha tocopherol and MBCD plus in combination for 3 days and then stained for neutral lipid with Nile red.
Wolman fibroblasts were treated with δ-tocopherol, α-tocopherol, methyl-β-cyclodextrin, or combinations of δ-tocopherol and methyl-β-cyclodextrin or α-tocopherol and methyl-β-cyclodextrin. […] To further characterize the effect of treatment on lipid accumulation, treated fibroblasts were evaluated using a Nile Red assay to measure neutral lipid accumulation. […] The Nile Red staining was visualized by fluorescent microscopy.
Another experiment has as its system NPC cells. As to conditions: NPC / NPC1 cells; reported; cited from earlier work.
The test system of experiment [2] is NPC1 and Wolman fibroblasts, control fibroblasts. Nature of the experiment: Intracellular cytosolic Ca2+ measurement (Fluo-8). In kind it is cell-based, human.
Excerpt: as §1

The subject of experiment [3] is NPC1, Wolman and other lysosome storage disorder fibroblasts. As to the kind of experiment: Electron microscopy of lysosomal ultrastructure.
Protocol: Electron Microscopy—Fibroblast cells were seeded in 6-well plates at 150,000 cells/well in 5 ml medium and cultured for 1 day in the presence or absence of compounds. Cells were fixed in 2% glutaraldehyde, 0.1 M cacodylate buffer, pH 7.2 for 1 hr at room temperature and then stored at 4° C. until TEM analysis was performed. The cells were post fixed in 1% osmium tetroxide in the same buffer for 1 hour and en bloc stained with 0.5% uranyl acetate in 0.1 M acetate buffer, pH 4.2. The cells were then dehydrated in graded ethanol solutions (35%, 50%, 70%, 95% and 100%) and infiltrated overnight in epoxy resin (Poly/Bed 812, Polysciences). After adding fresh pure resin the cell plates were cured for 72 h in 55° C. After removing the polystyrene plates, suitable areas for thin sectioning were selected, cut out with a jewelry saw and glued onto empty resin stubs. About 70 nm thin sections were cut on an ultramicrotome (Leica EM UC6) and mounted on naked copper grids. The thin sections were double stained (uranyl acetate and lead citrate), examined in a Hitachi H-7650 transmission electron microscope, and images were taken using an AMT CCD camera.
The effects of δ-tocopherol and methyl-β-cyclodextrin on the ultrastructural pathology of lysosomes in lysosome storage disorder cells were investigated by electron microscopy. In brief, following treatment of wild-type and lysosome storage disorder fibroblasts with δ-tocopherol, methyl-β-cyclodextrin, or δ-tocopherol and methyl-β-cyclodextrin, the fibroblasts were fixed and embedded. Thin sections of the embedded cells were then prepared and the ultrastructural pathology was examined by electron microscopy. […] The effects of δ-tocopherol and/or methyl-β-cyclodextrin on the ultrastructural pathology of other lysosome disorder fibroblasts-Farber (FIGS. 7,8 and 10); Tay-Sachs (FIG. 8); Fabry (FIG. 8); Wolman (FIG. 9); NPA (FIG. 9); Batten (FIG. 9); MSIIB (FIG. 9)—were analyzed by electron microscopy.
Experiment [4] has as its system Wolman fibroblasts. As to the kind of experiment: Amplex-Red cholesterol assay in Wolman fibroblasts. The class given is cell-based, human. As to conditions: Wolman fibroblasts. How it is done: as §2
Experiment [5] concerns Wolman fibroblasts. Nature of the experiment: β-Hexosaminidase (HEXB) release, lysosomal exocytosis. In kind it is cell-based, human. As to conditions: 40 μM, 24 hours, compared with vehicle treated cells. How it is done: Measurement of β-Hexosaminidase (HEXB) Release—Fibroblasts were cultured in 24-well plates at 30,000 cells/well in 0.4 ml medium for one day at 37° C. After being washed twice with the assay buffer (DMEM with 2 mM D-mannose 6-phosphate sodium salt), the cells with 0.4 ml/well the assay buffer were incubated at 37° with 0.2 ml/well compound in assay buffer. […] The rest of assay buffer in the 24-well plate was discarded followed by addition of 0.6 ml 1% Triton-X100 in dH2O to lyse the cells. After incubation at 37° C. for 30 min. 6 μl/well cell lysate were added to the 96-well plate with 24 μl assay buffer followed by 90 μl/well 2.25 mM HEXB substrate, 4-Methylumbelliferyl N-acetyl-β-D-glucosaminide (Sigma-Aldrich, #M2133), in a 25 mM citric acid buffer at pH 4.5. The 96-well plate was then measured in the Tecan fluorescence plate reader (Ex=365±20 nm and Em=460±20 nm) after 1 hr incubation at 37° C. and addition of 100 μl/well stop solution (1 M glycine and 1 M NaOH at pH 10.5).
FIG. 3. […] We measured lysosomal exocytosis in delta-T-treated Wolman fibroblasts by determining the activity of beta-hexosaminidase (HEXB), a lysosomal enzyme, in the extracellular medium.
In brief, the level of lysosomal exocytosis was determined by measuring the level of the lysosomal enzyme HEXB secreted into the culture medium following treatment with drug.

A further experiment relates to NPC1-NSCs. As to the kind of experiment: Amplex-red cholesterol assay in NPC1 neural stem cells. The class given is cell-based, human. The procedure: as §2
Induced pluripotent stem cells (IPSCs) from the NPC1 skin fibroblasts were generated and differentiated into neural stem cells (NPC1-NSCs).

Experiment [6] deals with fibroblasts derived from patients with lysosomal storage diseases. Nature of the experiment: LysoTracker dye staining of enlarged lysosomes. The class given is cell-based, human. How it is done: On the experimental day, cells were live-stained with 100 μl/well 50 nM LysoTracker-Red DND-99 dye (Invitrogen, #L-7528) in medium at 37° C. for 1 hr followed by plate washing twice with PBS. The plate was then fixed in 100 μl/well 3.2% formaldehyde for 1 hr and washed for two times with PBS. […] After washing twice with PBS, the plates were stored at 4° C. until imaging analysis. DAPI filter set and TRITC filter set in the Incell2000 imaging plate reader were used to visualize Hoechst nuclear staining and LysoTracker staining, respectively.
FIG. 5. […] To test this hypothesis we measured the ability of delta-T to decrease acidic/lysosomal compartment size as determined by LysoTracker staining in fibroblasts derived from patients with six other diseases. Lysosomal storage occurs in these fibroblasts consists of ceroid/lipofuscin in Batten (CLN2), globotriaosylceramide in Fabry, ceramide in Farber, sphingomyelin in NPA, partially degraded heparan sulfate in Sanfilippo type B, and GM2 ganglioside in Tay-Sachs (Table S1).
The effect of various cyclodextrins, δ-tocopherol, and combinations of cyclodextrins and δ-tocopherol on lipid accumulation and lysosome size in wild-type and lysosomal storage disease fibroblasts (Wolman, Tay-Sach, Fabry, Farber, and MPSIIIB fibroblasts) was determined using Lysotracker assay. In brief, cells were treated with various combinations and concentrations of drugs followed by staining with the Lyso tracker dye which is a basophilic fluorescent probe that accumulates in acidic compartments, i.e. lysosomes, within the cell.

Where two headings read alike, the source gives them in different places.

Broadly, the IC50 is the point on the concentration scale where inhibition reaches its midpoint. For `Cc1cc(O)cc2c1O[C@](C)(CCC[C@H](C)CCC[C@H](C)CCCC(C)C)CC2` [delta-tocopherol], the “lysosomal Ca2+ released by GPN” value with NPC1 fibroblasts is reported as “significantly increased lysosomal Ca^2+”. The “unesterified cholesterol accumulation (Amplex Red)” value in the experiment on NPC1 skin fibroblasts is recorded as “dramatically reduces cellular cholesterol accumulation”. Further, the “neutral lipid accumulation (Nile red)” value with Wolman fibroblasts [1] (FIG. 2) is “reduces accumulation of neutral lipids”; in the experiment on Wolman fibroblasts [1] (FIG. 2, listed as δ-tocopherol) it was “significantly reduced”. Also, in the experiment with NPC cells, the “cholesterol efflux, accumulation or storage” value is “increased the cholesterol efflux from NPC cells and reduced cholesterol accumulation”. In addition, the “cytosolic Ca2+” value in experiment [2] is given as “stimulated a transient increase of cytosolic Ca^2+”. Besides, the “characteristic storage materials in lysosomes (electron microscopy)” value in experiment [3] (40 μM, NPC1 and Wolman cells) was “significantly reduced the characteristic storage materials”. Also, in [3] (Wolman fibroblasts, FIG. 6), the “abnormal lysosomal structures (electron microscopy)” value is on record as “significantly reduced”. The “reduction in total cholesterol” value in the experiment on Wolman fibroblasts [4] (FIGS. 1A-1C) is listed as “significant reduction”. Further, the “reduction in free cholesterol” value in the experiment with Wolman fibroblasts [4] (FIGS. 1D-1F) is “significant reduction”. Moreover, in the experiment with Wolman fibroblasts [5], the “HEXB activity in culture medium” value is listed as “increased”. For the same compound, the “potency in NPC1 neuronal cells compared to NPC1 skin fibroblasts” value in the experiment on NPC1-NSCs is listed as “weaker”. The “cholesterol accumulation, combination therapy experiment” value in the experiment with NPC1-NSCs (50 μM HBPCD, 10 μM delta-tocopherol, alone or combined, compared with 5 mM HBPCD) is on record as “did not show the significant cholesterol reduction effect”. The IC50 in the experiment on NPC1-NSCs (NPC1-NSCs, FIG. 12A, read-out: IC50, Amplex-red cholesterol assay) was found to be 18 µM; with NPC1-NSCs (human NPC1 neural stem cells, values given under dosage recommendations, read-out: IC50 on reduction of cholesterol accumulation, Amplex-red cholesterol assay), 15 µM. Also, the LysoTracker staining entry in [6] (40 μM, six fibroblast lines: Batten (CLN2), Fabry, Farber, NPA, Sanfilippo type B, Tay-Sachs) was “significantly reduced the LysoTracker staining”; in experiment [6] (NPC1 and Wolman fibroblasts, 40 μM delta-T or 300 μM MBCD) it was “significantly reduced LysoTracker staining”. In addition, the “lipid accumulation and lysosome size (Lysotracker)” value in experiment [6] (Wolman, Tay-Sach, Fabry, Farber, MPSIIIB fibroblasts, FIGS. 5A-5D) was “reduced lipid accumulation and lysosome size”.
